In US5252571A, “1,4-benzothiazine-2-acetic acid derivatives” (Sapporo Breweries Limited, priority 1990, dated 1993):
Like-named read-outs stand apart in the source and are kept apart here.

Assays:
[1] = test system: sorbitol in lens withdrawn from rat; assay: Activity for preventing accumulation of sorbitol in lens withdrawn from rat; type: cell-based, SD rat; conditions: 50 mM glucose, 10^-6 M test drug, 4 hours, 1% DMSO = 100%, read-out: Sorbitol Content (%)
Experimental: 2) Activity for preventing accumulation of sorbitol in lens withdrawn from rat
The lens withdrawn from SD rats of 7 to 8 weeks age was incubated in 2.0 ml of Kreb's solution (pH 7. 4) containing 50 mM glucose and 10^-6 M test drug for 4 hours. The sorbitol content formed in the tissue was assayed by the enzyme method of Bergmeyer et al. [cf., H. Y. Bergmeyer et al., Methods of Enzymatic Analysis, 3, 1323-1330, 19741 using SDH (Sorbitol dehydrogenase) and AND (β-nicotinamide adenine dinucleotide). The sorbitol content was made 100% when 1% DMSO as a solvent was added in place of the drug and the activity of the drug was determined.

[2] = test system: tissue sorbitol in streptozotocin-induced diabetic rats; assay: Inhibitory activity of accumulation of tissue sorbitol in streptozotocin-induced diabetic rats; type: in vivo, Sprague-Dawley rats; conditions: 30 mg/kg oral 4, 8 and 24 hours after streptozotocin, control = 100%, Tukey's test *p < 0.05, **p < 0.01; for Accumulation of Tissue Sorbitol (%), Nerve: sciatic nerve
Experimental: 4) Inhibitory activity of accumulation of tissue sorbitol in streptozatocini-induced diabetic rats.
Sprague-Dawley rats (male,6 weeks of age, one group composed of 5 to 6 rats), fasted overnight, were made diabetic by single intravenous injection of 60 mg/kg body weight of streptozotocin (SIGMA Co. ) , which had been freshly dissolved in normal saline solution.
The compound was orally administered in the form of 0.5% carboxymethylcellulose suspension in a dose of 30 mg/kg 4, 8 and 24 hours after the injection of streptozotocin. During the test, rats were free access to feed and water. Three hours after the final administration, the sorbitol contens in tissues (red blood cell, sciatic nerve, lens) Were determined by the enzyme method of Bergmeyer et al. [cf., H. Y. Bergmeyer et al., Methods of Enzymatic Analysis, 3, 1323-1330, 1974], using SDH (sorbitol dehydrogenase) and AND (β-nicotinamide adenine dinucleotide). The results are shown by percentage (%) when the value obtained with control group administered with 0.5% carboxymethylcellulose solution as a solvent instead of the compound was made 100%.

aldose reductase = molecular target: T1, aldose reductase (Sus scrofa, UniProt P80276); assay: Aldose reductase inhibitory activity (porcine crystalline lens enzyme); type: biochemical
T1 construct: porcine crystalline lens stored at -80° C. was homogenized in distilled water; from tissue; host or cells: porcine crystalline lens
Experimental: Aldose reductase enzyme standard was prepared from porcine crystalline lens by the method of Hayman et al. (cf., S. Hayman et al., Journal of Biological Chemistry, 240, 877-882, 1965). That is, porcine crystalline lens stored at -80° C. was homogenized in distilled water followed by centrifugation at 10,000 XG for 15 minutes. The supernatant was dissolved to make 40% ammonium sulfate solution. The supernatant centrifuged at 10,000 XG for further 10 minutes was dialyzed to 0.05 M sodium chloride solution overnight. The thus obtained dialysate was used as the enzyme standard.
The activity of aldose reductase was determined by the method of Hayman et al. supra. That is, 25 μl of the enzyme solution described above and […] of a drug solution in 1% DMSO having various concentrations were added to 200 μl of 40 mM phosphate buffer (pH 6.2) prepared to contain […] lithium sulfate and 0.1 MM NADPH (reduced nicotinamide adenine dinucleotide phosphate) in final concentrations and Containing 3 mM d1-glyceraldehyde as substrate, respectively. Thereafter, the mixture was reacted at 25° C. for 2 minutes and change in absorbance at 340 nm was determined using COBAS FARA II (Roche Co.).

[3] = molecular target: T2, human placenta aldose reductase (Homo sapiens, UniProt P15121); assay: Aldose reductase of human origin inhibitory activity; type: biochemical; conditions: for IC50: d1-glyceraldehyde 3 mM, pH 6.2, 25° C., read-out: IC50 HPAR (human placenta aldose reductase; head prints HPAP); for Ratio HPALR/HPAR: ratio of IC50 aldehyde reductase to aldose reductase, human placenta
T2 construct: The aldose reductase enzyme standard was prepared from human placenta; from tissue; host or cells: human placenta
Experimental: (§1) That is, human placenta stored at -80° C. was homogenized in distilled water followed by centrifugation at 10,000 XG for 15 minutes. […] The dialysate was applied to DEAE-cellulose column. The fraction containing aldose reductase activity eluted by salt concentration gradient was dialyzed and used as aldose reductase enzyme standard. Furthermore, after fractionation with ammonium sulfate solution, the dialysate was applied to Red Sepharose CL-6B, the fraction containing aldehyde reductase activity eluted by salt concentration gradient was dialyzed and used as aldehyde reductase enzyme standard.
That is, 25 μl of the enzyme solution described above and 25 μl of a drug solution in 1% DMSO having various concentrations were added to 200 μl of 40 Mm phosphate buffer (pH 6.2) prepared to contain 0.4 M lithium sulfate and 0.1 mM NADPH (reduced nicotinamide adenine dinucleotide phosphate) in final concentrations and containing 3 mM d1-glyceraldehyde as substrate, respectively.

[4] = molecular target: T3, human placenta aldehyde reductase (Homo sapiens, UniProt P14550); assay: Aldehyde reductase of human origin inhibitory activity (specificity); type: biochemical; conditions: 15 mM glucuronate, pH 7.0, read-out: 10 μM inhibition % HPALR
T3 construct: the fraction containing aldehyde reductase activity eluted by salt concentration gradient was dialyzed and used as aldehyde reductase enzyme standard; from tissue; host or cells: human placenta
T3 sequence (P14550 1-325): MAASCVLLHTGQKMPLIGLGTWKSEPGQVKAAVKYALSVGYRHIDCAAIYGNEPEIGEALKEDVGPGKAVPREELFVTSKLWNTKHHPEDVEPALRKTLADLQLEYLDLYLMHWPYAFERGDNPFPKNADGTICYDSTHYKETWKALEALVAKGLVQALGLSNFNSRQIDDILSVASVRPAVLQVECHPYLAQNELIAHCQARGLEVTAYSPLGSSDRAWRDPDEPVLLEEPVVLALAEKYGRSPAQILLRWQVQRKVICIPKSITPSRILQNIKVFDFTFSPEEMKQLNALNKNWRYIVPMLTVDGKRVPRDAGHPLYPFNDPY
Experimental: as §1
That is, the activity was determined in a manner similar to the case of determining aldose reductase activity, using 200 mM phosphate buffer (pH 7.0) prepared to contain 0.1 mM NADPH in a final concentration and 15 mM glucuronate as substrate.

ICR strain mice = assay: Safety test, single oral administration in mice with 14 days observation; type: in vivo; conditions: 300 mg/kg oral, male ICR mice
Experimental: Next, safety of the compounds of the present invention was verified by the following test.
After normal ICR strain mice (male, 7 weeks age, 5 mice being into one group) was fasted for 18 hours, each compound (300 mg/kg) of Examples 1311, 132, 134, 156, 173, 179, 183 and 188 was orally administered in the form of 0.5% carboxymethylcellulose suspension. In the control group, 0.5% carboxymethylcellulose solution alone was orally administered. […] During the observation, mice were free access to feed and water.

[5] = d1-glyceraldehyde 3 mM, pH 6.2, 25° C., 2 minutes

| IC50 (aldose reductase; [5]) [nM] | IC50 [3] [nM] | Ratio HPALR/HPAR [3] | inhibition at 10 µM [4] [%] | Compound | activity at 1 µM [1] [%] | Accumulation of Tissue Sorbitol (%), Lens [2] [%] | Accumulation of Tissue Sorbitol (%), Red Blood Cell [2] [%] | Accumulation of Tissue Sorbitol (%), Nerve [2] [%] | body weight (ICR strain mice) | mice dead (ICR strain mice) | IC50 (aldose reductase; read-out: IC50 (50% inhibitory concentration, aldose reductase), d1-glyceraldehyde 3 mM, pH 6.2, 25° C., 2 minutes) [nM] |
| --- | --- | --- | --- | --- | --- | --- | --- | --- | --- | --- | --- |
| 21 |  |  |  | CC(C)c1cccc2c1OC(C(C)C)C(=S)N2CC(=O)O (stereo not drawn) [Compound A, 3,4-dihydro-2,8-diisopropyl-3-thioxo-2H-1,4-benzoxazine-4-acetic acid, reference compound] | 56 | 87.3 | 53.7 | 54.9 |  |  |  |
|  | 12 | > 833 | 32.9 | Cc1ccc2c(c1)N(Cc1nc3c(F)c(F)cc(F)c3s1)C(=O)C(CC(=O)O)S2 (stereo not drawn) [Example 165, 2-[4-(4,5,7-Trifluorobenzothiazol-2-yl)methyl-6-methyl-3,4-dihydro-3-oxo-2H-1,4-benzothiazin-2-yl]acetic acid] |  |  |  |  |  |  |  |
|  | 13 | > 769 | 28.6 | O=C(O)CC1Sc2c(F)cccc2N(Cc2nc3c(Cl)c(Cl)ccc3s2)C1=O (stereo not drawn) [Example 167, 2-[4-(4,5-Dichlorobenzothiazol-2-yl)methyl-8-fluoro-3,4-dihydro-3-oxo-2H-1,4-benzothiazin-2-yl]acetic acid] |  |  |  |  |  |  |  |
| 9.9 | 9.3 | > 1075 | 18.5 | O=C(O)CC1Sc2ccccc2N(Cc2nc3c(F)c(F)ccc3s2)C1=O (stereo not drawn) [Example 189, 2-[4-(4,5-Difluorobenzothiazol-2-yl)methyl-3,4-dihydro-3-oxo-2H-1,4-benzothiazin-2-yl]acetic acid] | 37 | 30.7 | 16.6 | 1.1 |  |  |  |

| Compound | IC50 (aldose reductase; [5]) [nM] | IC50 [3] [nM] | Ratio HPALR/HPAR [3] | inhibition at 10 µM [4] [%] | activity at 1 µM [1] [%] | Accumulation of Tissue Sorbitol (%), Lens [2] [%] | Accumulation of Tissue Sorbitol (%), Red Blood Cell [2] [%] | Accumulation of Tissue Sorbitol (%), Nerve [2] [%] | body weight (ICR strain mice) | mice dead (ICR strain mice) | IC50 (aldose reductase; read-out: IC50 (50% inhibitory concentration, aldose reductase), d1-glyceraldehyde 3 mM, pH 6.2, 25° C., 2 minutes) [nM] |
| --- | --- | --- | --- | --- | --- | --- | --- | --- | --- | --- | --- |
| O=C(O)CC1Sc2ccccc2N(Cc2nc3c(F)c(F)cc(F)c3s2)C1=O (stereo not drawn) [Example 183, 2-[4-(4,5,7-Trifluorobenzothiazol-2-yl)methyl-3,4-dihydro-3-oxo-2H-1,4-benzothiazin-2-yl]acetic acid] |  | 10 | > 1000 | 19.3 | 29 | 39.1 | 25.8 | 3.1 | progressed as in the control group | none | 9.5 |
| O=C(O)CC1Sc2cc(F)ccc2N(Cc2nc3c(F)c(F)cc(F)c3s2)C1=O (stereo not drawn) [Example 188, 2-[4-(4,5,7-Trifluorobenzothiazol-2-yl)methyl-7-fluoro-3,4-dihydro-3-oxo-2H-1,4-benzothiazin-2-yl]acetic acid] | 9.7 | 14 | > 714 | 19.1 | 38 | 32.5 | 15.7 | 0.0 | progressed as in the control group | none |  |
